system: 8×TBD luciferase reporter (YAP) in HEK293T cells; assay: YAP Reporter Assay (8×TBD firefly luciferase reporter); assay type: cell-based; details: Homo sapiens, HEK-293T, 24 h, read-out: Firefly Luciferase IC50 (μM)
In short: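 Stably transfected HEK293T cells (8×TBD firefly luciferase plus TK-renilla) were dosed with 10-point 1:3 dilutions from 3 μM final, quadruplicates, for 24 h at 37 °C. Dual-Glo read firefly and renilla luminescence; IC50 and maximal inhibition reported separately for each.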

**Q.** For `CC(C)NC(=O)c1ccc2c(Oc3ccc(Cl)c(Cl)c3)cccc2c1` [Compound 3, 5-(3,4-dichlorophenoxy)-N-isopropyl-naphthalene-2-carboxamide], which IC50 is on record?
**A.** < 0.1 µM

same assay, conditions: Homo sapiens, HEK-293T; HEK293T cells stably transfected with 8×TBD luciferase reporter and pRLTK; 24-hr incubation; firefly luciferase activity; read-out: Firefly Luciferase IC50

**Q.** With `C[C@@H](NC(=O)c1ccc2c(Oc3ccc(C(F)(F)F)cc3)cccc2c1)C1CN(CC(F)F)C1` [Compound 125, (R)—N-(1-(1-(2,2-difluoroethyl)azetidin-3-yl)ethyl)-5-(4-(trifluoromethyl)phenoxy)-2-naphthamide] as the compound, how does the IC50 read?
**A.** < 0.1 µM

**Q.** For `C[C@@H](NC(=O)c1ccc2c(Oc3ccc(C(F)(F)F)cc3)cccc2c1)c1cccc2ccc(=O)[nH]c12` [Compound 98, N-[(1R)-1-(2-oxo-1H-quinolin-8-yl)ethyl]-5-[4-(trifluoromethyl)phenoxy]naphthalene-2-carboxamide], which IC50 is on record?
**A.** < 0.1 µM

**Q.** For `CC(NC(=O)c1ccc2c(Oc3ccc(C(F)(F)F)cc3)cccc2c1)c1cc(Br)ccn1` (centres unmarked) [Compound 75, N-(1-(4-bromopyridin-2-yl)ethyl)-5-(4-(trifluoromethyl)phenoxy)-2-naphthamide], which IC50 is on record?
**A.** < 0.1 µM

**Q.** With `CC(C)NC(=O)c1ccc2c(Oc3ccc(C(F)(F)F)cc3)nccc2c1` [Compound 11, N-isopropyl-1-[4-(trifluoromethyl)phenoxy]isoquinoline-6-carboxamide] as the compound, how does the IC50 read?
**A.** < 0.1 µM

**Q.** For `C[C@H](NC(=O)c1ccc2c(Oc3ccc(C(F)(F)F)cc3)cccc2c1)c1ccccc1Cl` [Compound 83, (S)—N-(1-(2-chlorophenyl)ethyl)-5-(4-(trifluoromethyl)phenoxy)-2-naphthamide], which IC50 is on record?
**A.** < 0.1 µM

**Q.** With `C[C@H](NC(=O)c1ccc2c(Oc3ccc(C(F)(F)F)cc3)cccc2c1)C1CN(CCF)C1` [Compound 129, (S)—N-(1-(1-(2-fluoroethyl)azetidin-3-yl)ethyl)-5-(4-(trifluoromethyl)phenoxy)-2-naphthamide] as the compound, how does the IC50 read?
**A.** 1 to 3 µM

**Q.** How did the IC50 turn out when `CNS(=O)(=O)c1ccc2c(Oc3ccc(C(F)(F)F)cc3)cccc2c1` [Compound 7, N-methyl-5-(4-(trifluoromethyl)phenoxy)naphthalene-2-sulfonamide] was run?
**A.** < 0.1 µM

**Q.** How did the IC50 turn out when `C[C@@H](NC(=O)c1ccc2c(Oc3ccc(C(F)(F)F)cc3)cccc2c1)c1cnccn1` [Compound 46, (R)—N-(1-(pyrazin-2-yl)ethyl)-5-(4-(trifluoromethyl)phenoxy)-2-naphthamide] was run?
**A.** < 0.1 µM

**Q.** Which IC50 does the source give for `CC(C)N1CC([C@H](C)NC(=O)c2ccc3c(Oc4ccc(C(F)(F)F)cc4)cccc3c2)C1` [Compound 132, (S)—N-(1-(1-isopropylazetidin-3-yl)ethyl)-5-(4-(trifluoromethyl)phenoxy)-2-naphthamide] here?
**A.** 0.1 to 1 µM

**Q.** With `O=C(NC(CO)c1ccccn1)c1cnc2c(Oc3ccc(C(F)(F)F)cc3)cccc2c1` (centres unmarked) [Compound 14, N-[2-hydroxy-1-(2-pyridyl)ethyl]-8-[4-(trifluoromethyl)phenoxy]quinoline-3-carboxamide] as the compound, how does the IC50 read?
**A.** < 0.1 µM

**Q.** For `C[C@@H](NC(=O)c1ccc2c(Oc3ccc(C(F)(F)F)cc3)cccc2c1)C(N)=O` [Compound 51, (R)—N-(1-amino-1-oxopropan-2-yl)-5-(4-(trifluoromethyl)phenoxy)-2-naphthamide], which IC50 is on record?
**A.** < 0.1 µM

**Q.** For `CC#C[C@@H](C)NC(=O)c1ccc2c(Oc3ccc(C(F)(F)F)cc3)cccc2c1` [Compound 90, N-[(1R)-1-methylbut-2-ynyl]-5-[4-(trifluoromethyl)phenoxy]naphthalene-2-carboxamide], which IC50 is on record?
**A.** < 0.1 µM

**Q.** How did the IC50 turn out when `CNCCCNC(=O)c1ccc2c(Oc3ccc(C(F)(F)F)cc3)cccc2c1` [Compound 34, N-(3-(methylamino)propyl)-5-(4-(trifluoromethyl)phenoxy)-2-naphthamide] was run?
**A.** < 0.1 µM

**Q.** With `C[C@H](NC(=O)c1ccc2c(Oc3ccc(C(F)(F)F)cc3)cccc2c1)c1cccnc1N` [Compound 78, (S)—N-(1-(2-aminopyridin-3-yl)ethyl)-5-(4-(trifluoromethyl)phenoxy)-2-naphthamide] as the compound, how does the IC50 read?
**A.** < 0.1 µM

**Q.** Which IC50 does the source give for `C[C@H](NC(=O)c1ccc2c(Oc3ccc(C(F)(F)F)cc3)cccc2c1)C1(O)CNC1` [Compound 138, (S)—N-(1-(3-hydroxyazetidin-3-yl)ethyl)-5-(4-(trifluoromethyl)phenoxy)-2-naphthamide] here?
**A.** 0.1 to 1 µM

**Q.** For `COc1cc(Oc2ccc(C(F)(F)F)cc2)c2ncc(C(=O)N[C@H](C)CO)cc2c1` [Compound 116, (R)—N-(1-hydroxypropan-2-yl)-6-methoxy-8-(4-(trifluoromethyl)phenoxy)quinoline-3-carboxamide], which IC50 is on record?
**A.** < 0.1 µM

**Q.** Which IC50 does the source give for `CC#C[C@H](C)NC(=O)c1ccc2c(Oc3ccc(C(F)(F)F)cc3)cccc2c1` [Compound 89, N-[(1S)-1-methylbut-2-ynyl]-5-[4-(trifluoromethyl)phenoxy]naphthalene-2-carboxamide] here?
**A.** < 0.1 µM

**Q.** Which IC50 does the source give for `C[C@@H](NC(=O)c1ccc2c(Oc3ccc(C(F)(F)F)cc3)cccc2c1)C1(O)CNC1` [Compound 139, (R)—N-(1-(3-hydroxyazetidin-3-yl)ethyl)-5-(4-(trifluoromethyl)phenoxy)-2-naphthamide] here?
**A.** < 0.1 µM

**Q.** Which IC50 does the source give for `COC[C@@H](C)NC(=O)c1cnc2c(Oc3ccc(C(F)(F)F)cc3)cc(OC)cc2c1` [Compound 44, (R)-6-methoxy-N-(1-methoxypropan-2-yl)-8-(4-(trifluoromethyl)phenoxy)quinoline-3-carboxamide] here?
**A.** < 0.1 µM

**Q.** For `CC(C)NC(=O)c1ccc2c(Oc3ccc(C(F)(F)F)cc3)ccnc2c1` [Compound 67, N-isopropyl-4-(4-(trifluoromethyl)phenoxy)quinoline-7-carboxamide], which IC50 is on record?
**A.** 0.1 to 1 µM

**Q.** How did the IC50 turn out when `CC(C)NC(=O)c1ccc2c(Oc3ccc(C(F)(F)F)cc3Cl)cccc2c1` [Compound 85, 5-(2-chloro-4-(trifluoromethyl)phenoxy)-N-isopropyl-2-naphthamide] was run?
**A.** < 0.1 µM

**Q.** `C[C@@H](NC(=O)c1ccc2c(Oc3ccc(C(F)(F)F)cc3)cccc2c1)c1ccccn1` [Compound 27, N-[(1R)-1-(2-pyridyl)ethyl]-5-[4-(trifluoromethyl)phenoxy]naphthalene-2-carboxamide] was tested. Which IC50 did it give?
**A.** 0.1 to 1 µM

**Q.** `CN(C#N)CCCNC(=O)c1ccc2c(Oc3ccc(C(F)(F)F)cc3)cccc2c1` [Compound 35, N-(3-(N-methylcyanamido)propyl)-5-(4-(trifluoromethyl)phenoxy)-2-naphthamide] was tested. Which IC50 did it give?
**A.** < 0.1 µM

**Q.** With `C[C@@H](NC(=O)c1ccc2c(Oc3ccc(C(F)(F)F)cc3)cccc2c1)c1c[nH]cn1` [Compound 48, (R)—N-(1-(1H-imidazol-4-yl)ethyl)-5-(4-(trifluoromethyl)phenoxy)-2-naphthamide] as the compound, how does the IC50 read?
**A.** < 0.1 µM

**Q.** For `C[C@@H](NC(=O)c1ccc2c(Oc3ccc(C(F)(F)F)cc3)cccc2c1)C1CCN(CC(F)F)CC1` [Compound 162, (R)-N-(1-(1-(2,2-difluoroethyl)piperidin-4-yl)ethyl)-5-(4-(trifluoromethyl)phenoxy)-2-naphthamide], which IC50 is on record?
**A.** 0.1 to 1 µM

**Q.** For `CNCCNC(=O)c1ccc2c(Oc3ccc(C(F)(F)F)cc3)cccc2c1` [Compound 30, N-(2-(methylamino)ethyl)-5-(4-(trifluoromethyl)phenoxy)-2-naphthamide], which IC50 is on record?
**A.** 0.1 to 1 µM

**Q.** For `O=C(NC(CO)c1ccccn1)c1ccc2c(Oc3ccc(C(F)(F)F)cc3)cccc2c1` (centres unmarked) [Compound 25, N-(2-hydroxy-1-(pyridin-2-yl)ethyl)-5-(4-(trifluoromethyl)phenoxy)-2-naphthamide], which IC50 is on record?
**A.** < 0.1 µM

**Q.** Which IC50 does the source give for `C[C@H](NC(=O)c1ccc2c(Oc3ccc(C(F)(F)F)cc3)cccc2c1)c1nccn1C` [Compound 69, (S)—N-(1-(1-methyl-1H-imidazol-2-yl)ethyl)-5-(4-(trifluoromethyl)phenoxy)-2-naphthamide] here?
**A.** 0.1 to 1 µM

**Q.** For `C[C@H](NC(=O)c1ccc2c(Oc3ccc(C(F)(F)F)cc3)cccc2c1)C1CCC1` [Compound 60, (S)—N-(1-cyclobutylethyl)-5-(4-(trifluoromethyl)phenoxy)-2-naphthamide], which IC50 is on record?
**A.** < 0.1 µM

**Q.** How did the IC50 turn out when `C[C@@H](NC(=O)c1ccc2c(Oc3ccc(C(F)(F)F)cc3)cccc2c1)C1(F)CNC1` [Compound 152, (R)-N-(1-(3-fluoroazetidin-3-yl)ethyl)-5-(4-(trifluoromethyl)phenoxy)-2-naphthamide] was run?
**A.** 0.1 to 1 µM

**Q.** Which IC50 does the source give for `C[C@H](NC(=O)c1ccc2c(Oc3ccc(C(F)(F)F)cc3)cccc2c1)c1cccc(N(C)C)n1` [Compound 76, (S)—N-(1-(6-(dimethylamino)pyridin-2-yl)ethyl)-5-(4-(trifluoromethyl)phenoxy)-2-naphthamide] here?
**A.** 0.1 to 1 µM

**Q.** How did the IC50 turn out when `C[C@H](NC(=O)c1ccc2c(Oc3ccc(C(F)(F)F)cc3)cccc2c1)c1ncc[nH]1` [Compound 63, (S)—N-(1-(1H-imidazol-2-yl)ethyl)-5-(4-(trifluoromethyl)phenoxy)-2-naphthamide] was run?
**A.** 0.1 to 1 µM

**Q.** For `COC[C@H](C)NC(=O)c1cnc2c(Oc3ccc(C(F)(F)F)cc3)cc(OC)cc2c1` [Compound 45, (S)-6-methoxy-N-(1-methoxypropan-2-yl)-8-(4-(trifluoromethyl)phenoxy)quinoline-3-carboxamide], which IC50 is on record?
**A.** < 0.1 µM

**Q.** How did the IC50 turn out when `CS(=O)(=O)NC(=O)c1ccc2c(Oc3ccc(C(F)(F)F)cc3)cccc2c1` [Compound 5, N-(methylsulfonyl)-5-(4-(trifluoromethyl)phenoxy)-2-naphthamide] was run?
**A.** < 0.1 µM

**Q.** `O=C(NC(CCO)c1ccccn1)c1ccc2c(Oc3ccc(C(F)(F)F)cc3)cccc2c1` (centres unmarked) [Compound 94, N-(3-hydroxy-1-(pyridin-2-yl)propyl)-5-(4-(trifluoromethyl)phenoxy)-2-naphthamide] was tested. Which IC50 did it give?
**A.** < 0.1 µM

**Q.** With `C[C@@H](NC(=O)c1ccc2c(Oc3ccc(C(F)(F)F)cc3)cccc2c1)C1CN(C2CC2)C1` [Compound 137, (R)—N-(1-(1-cyclopropylazetidin-3-yl)ethyl)-5-(4-(trifluoromethyl)phenoxy)-2-naphthamide] as the compound, how does the IC50 read?
**A.** < 0.1 µM

**Q.** For `C[C@@H](NC(=O)c1ccc2c(Oc3ccc(C(F)(F)F)cc3)cccc2c1)c1cccc2cn[nH]c12` [Compound 87, N-[(1R)-1-(1H-indazol-7-yl)ethyl]-5-[4-(trifluoromethyl)phenoxy]naphthalene-2-carboxamide], which IC50 is on record?
**A.** < 0.1 µM

From patent publication US11420935B2, “Bicyclic compounds” (Vivace Therapeutics, Inc., priority 2019, dated 2022)
